Assay results: patent publication US7319093B2, “Antidiabetic 2-substituted-5′-O-(1-Boranotriphosphate) adenosine derivatives” (Bar-Ilan University, priority 2001, dated 2008)
Where “and” joins values, the source holds several entries; their conditions need not be identical. Equal values may be shown once. Read-outs that look alike come from different tables or passages of the source.

Tests used:
[1] = test system: isolated and perfused rat pancreas; details: cited from earlier work
[2] = test system: dog; details: cited from earlier work
[3] = test system: fed rats; details: cited from earlier work
[4] = test system: rat isolated and perfused pancreas; assay: Insulin secretion from isolated perfused rat pancreas (8.3 mmol/L glucose)
Procedure: (§1) The effects of the compounds on insulin secretion and vascular resistance in the rat isolated and perfused pancreas were evaluated in the presence of a slightly stimulating glucose concentration (8.3 mmol/L).
(§2) Experiments were performed in vitro in isolated perfused pancreas from male Wistar albino rats fed ad libitum and weighing 300-350 g. The pancreas was completely isolated according to a technique previously described (Loubatières et al., Diabetologia, 1969, 5, 1-10) and perfused through its own arterial system with a Krebs-Ringer bicarbonate buffer containing 8.3 mmol/L glucose and 2 g/L bovine serum albumin. A mixture of O2 (95%) and CO2 (5%) was bubbled through this medium at atmospheric pressure. The pH of the solution was 7.35. The preparation was maintained at 37.5° C. Each organ was perfused at a constant pressure (40-50 cm water) selected so as to produce a flow rate of 2.5 ml/min at the start of the experiment; in these conditions, any change in the flow rate reflects a change in vascular resistance (Hillaire-Buys et al., Eur. J. Pharmacol., 1991, 199, 309-314). A 30 min adaptation period was allowed before the first sample was taken for insulin assay. A sample was taken 15 min later, at time 45 min. Then, an infusion of ATP analogues was performed during 30 min. The pancreatic flow rate was recorded and insulin was measured in the effluent fractions.
Insulin was assayed by the radioimmunological method of Herbert et al. (J. Clin. Endocrinol. Metab., 1965, 25, 1375-1384) using a purified rat insulin as standard (Linco Research, St. Charles, Mo., USA) and anti-insulin serum (ICN Biochemicals, Miles, Puteaux, France). The assay sensitivity was 0.1 ng/ml. Insulin output from perfused pancreas is expressed as ng/min and was determined by multiplying the hormone concentration in the effluent fraction by the flow rate.
(§3) Results are expressed as means±standard error of the mean (SEM). For the kinetics of insulin secretion and vascular flow rate, the results are expressed as changes in relation to the value at time 45 min taken as 100%. For the determination of the concentration-response relationship, the mean insulin output rate was calculated as follows: the area under the curve for the drug infusion period divided by the number of minutes (AUC/30).

[5] = test system: Normal (non diabetic) Wistar rats; assay: Effect on glycemia in vivo, glucose tolerance test; design: species or system rat; details: in percent of baseline values, single oral dose 0.2 mg/kg, glucose 2 g/kg i.p., 0-60 min, individual animals 1-4
Procedure: Normal (non diabetic) Wistar rats were treated with a single oral dose of VK 38A (0.2 mg/kg) or placebo (vehicle) administered just before a glucose tolerance test, in a cross-over experimental design with a 7-day wash-out period. Glucose (2 g/kg) was administered by intraperitoneal injection. Blood samples were taken before and 10, 20, 30, 60 minutes after glucose load to measure glycemia. The area under the curve of plasma glucose concentrations (in percent of baseline values) was calculated. Results in four animals are given in Table 2 (baseline glucose concentrations were 1.26±0.02 and 1.26±0.04 g/L in control and treated animals, respectively).

[6] = test system: rat isolated and perfused pancreas; assay: Pancreatic flow rate (vascular resistance) in isolated perfused rat pancreas; details: for change in pancreatic flow rate: baseline 2.5 mL/min at time 45 min = 100%
Procedure: as §1, §2, §3

[7] = test system: rat isolated pancreas; assay: Glucose-dependence of the insulin response in the isolated rat pancreas; details: 20 nmol/L during 20 minutes, mean±sem
Procedure: The rat isolated pancreas is perfused in vitro with a physiological medium containing different concentrations of glucose. VK 38A is added during 20 minutes at 20 nmol/L. Insulin response is determined by the area under the concentration-time curve during VK 38A administration and is expressed as mean±sem.

[8] = injected directly to the pancreatico-duodenal artery
[9] = conscious dogs, oral administration

CCCCCCSc1nc(N)c2ncn([C@H]3O[C@@H](COP(O)(=S)OP(=O)(O)OP(=O)(O)O)[C@H](O)[C@@H]3O)c2n1 (stereo partly drawn) [2-hexylthio-ATP-α-S]
enhancement of potency relative to ATP ([1]; insulin secretion): 100 fold | increase in glucose-induced insulin secretion ([1]; nM concentration range): up to 500%

CSc1nc(N)c2ncn([C@@H]3O[C@H](COP(=O)(O)OP(=O)(O)OP(=O)(O)O)[C@@H](O)[C@H]3O)c2n1 [2-methylthio-ATP]
glycemia [2, 8]: slightly decreased glycemia | insulin release [2, 8]: stimulated insulin release

Nc1ncnc2c1ncn2[C@@H]1O[C@H](COP(=O)(O)OP(O)(O)=S)[C@@H](O)[C@H]1O [ADP-β-S, Adenosine 5′-O-(2-thio)diphosphate]
Insulin response [3]: sustained insulin response | glycemia [3]: reduction of glycemia | glycemia [2, 9]: reducing glycemia | insulinemia [2, 9]: transiently increasing insulinemia

BP(=O)(OC[C@H]1O[C@@H](n2cnc3c(N)nc(SC)nc32)[C@H](O)[C@@H]1O)OP(=O)(O)OP(=O)(O)O (stereo partly shown) [VK 38A, 2-methylthioadenosine-5′-O-(1-boranotriphosphate)]
maximal effect on insulin secretion (AUC for 30 min in % per min) [4]: approximately 900% | transient monophasic insulin response ([4]; 1.5 nmol/L, value at time 45 min taken as 100%): 230% | concentration range of immediate and concentration-dependent insulin response ([4]; 30 min infusion): 0.0015 to 5.0 µmol/L | AUC (VK38A-treated): area under the curve of plasma glucose concentrations [5]: 158 and 201 and 134 and 176 | change in pancreatic flow rate ([6]; 0.5 μmol/L): −6±3% | change in pancreatic flow rate ([6]; 1.5 μmol/L): −10±3% | change in pancreatic flow rate ([6]; 5.0 μmol/L): −8±6% | vascular effects (pancreatic flow rate) ([6]; till 150 nmol/L): no significant effect | Insulin response ([7]; glucose 2.8 mmol/L): 0.97 ± 0.03 ng/min | Insulin response ([7]; glucose 5.0 mmol/L): 2.68 ± 0.52 ng/min | Insulin response ([7]; glucose 8.3 mmol/L): 33.12 ± 1.75 ng/min

BP(=O)(OC[C@H]1O[C@@H](n2cnc3c(N)nc(SC)nc32)[C@H](O)[C@@H]1O)OP(=O)(O)OP(=O)(O)O (stereo partly shown) [VK 38B, 2-methylthioadenosine-5′-O-(1-boranotriphosphate)]
insulin response compared with VK 38A [4]: less potent than that induced by isomer A | transient reduction in pancreatic flow rate (increase in vascular resistance) ([6]; from the concentration of 15 nmol/L): −27±5%

BP(=O)(OC[C@H]1O[C@@H](n2cnc3c(N)ncnc32)[C@H](O)[C@@H]1O)OP(=O)(O)OP(=O)(O)O (stereo partly shown) [VK 39A, adenosine-5′-O-(1-boranotriphosphate)]
insulin response compared with VK 38A [4]: clearly less potent than that of VK 38 A | change in pancreatic flow rate ([6]; 0.5 μmol/L): +7±3% | change in pancreatic flow rate ([6]; 5.0 μmol/L): +10±3%

BP(=O)(OC[C@H]1O[C@@H](n2cnc3c(N)nc(Cl)nc32)[C@H](O)[C@@H]1O)OP(=O)(O)OP(=O)(O)O (stereo partly shown) [VK 44A, 2-chloroadenosine-5′-O-(1-boranotriphosphate)]
insulin response compared with VK 38A [4]: comparable to that of VK 38A | change in pancreatic flow rate ([6]; 0.015 μmol/L): +8±3% | change in pancreatic flow rate ([6]; 0.15 μmol/L): +16±5% | change in pancreatic flow rate ([6]; 1.5 μmol/L): +12±5%
